This note sets out measurements from PubChem BioAssay (NCI).

As usually defined, the TGI is the concentration at which net growth stops. Low readings indicate greater sensitivity of the cells, high ones lower sensitivity of the cells.

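Protocol summary: plate cells (96-well), add compound at 5 concentrations, incubate 48 h, interpolate endpoints linearly. TGI: total growth inhibition.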

Test systems include 786-0 renal; COLO 205 colon; HCC-2998 colon; HCT-116 colon; HOP-62 NSCLC; HS 578T breast; HT29 colon; IGROV1 ovarian; KM12 colon; MALME-3M melanoma; MDA-N; NCI-H226 lung; OVCAR-5 ovarian; RXF 393 renal; SF-268 CNS; SF-295 CNS; SNB-19 CNS; SNB-75 CNS; EKVX NSCLC.
Common to all, as to assay: DTP human tumour cell line panel, 48 h

As to `O=c1cc(-c2cccc(Br)c2)[nH]c2cc3c(cc12)OCO3`, the TGI with 786-0 renal is 12.9 µM; with COLO 205 colon, greater than 100 µM; with HCC-2998 colon, 63 µM; in the test on HCT-116 colon, 13.3 µM; in the test on HOP-62 NSCLC, 4.8 µM; with HS 578T breast it was 26 µM. For the same molecule, the TGI in the test on HT29 colon is greater than 83.3 µM; in the test with IGROV1 ovarian, 11.8 µM; in the test on KM12 colon it was 25.4 µM; in the test with MALME-3M melanoma it was 17.2 µM; with MDA-N, 2 µM; with NCI-H226 lung, 37 µM. Further, the TGI was greater than 100 µM in the test with OVCAR-5 ovarian; 14.3 µM in the test with RXF 393 renal; 24 µM in the test with SF-268 CNS; 6.52 µM in the test with SF-295 CNS; 10.3 µM in the test on SNB-19 CNS; 10.5 µM in the test on SNB-75 CNS.

`O=c1[nH]c(=S)c2[nH]c(=O)n(-c3ccccc3)c2[nH]1`: the TGI in the test on 786-0 renal, in the test with EKVX NSCLC, in the test on HCC-2998 colon, in the test with HCT-116 colon, with HOP-62 NSCLC and in the test on HS 578T breast was greater than 100 µM each time. Besides, the TGI in the test on HT29 colon, with IGROV1 ovarian, with KM12 colon, with MALME-3M melanoma, with MDA-N and in the test with NCI-H226 lung was greater than 100 µM each time. In addition, the TGI in the test with OVCAR-5 ovarian, in the test with RXF 393 renal, with SF-268 CNS, in the test on SF-295 CNS and with SNB-19 CNS was greater than 100 µM in each case.

For the molecule `COc1cccc(-c2cc(=O)c3cc(N4CCCC4)ccc3[nH]2)c1`, the TGI with 786-0 renal is greater than 10 µM; in the test on COLO 205 colon it was less than 0.001 µM; in the test with EKVX NSCLC, greater than 10 µM; in the test with HCC-2998 colon, 0.013 µM; in the test with HCT-116 colon, 0.0348 µM; with HOP-62 NSCLC, greater than 10 µM. In addition, the TGI in the test on HS 578T breast was greater than 10 µM; with IGROV1 ovarian, greater than 10 µM; in the test on KM12 colon it was 0.0111 µM; in the test with MALME-3M melanoma it was 9.53 µM; in the test on MDA-N it was less than 0.001 µM; with NCI-H226 lung, 0.00347 µM. For the same molecule, the concentration for total growth inhibition (TGI) was greater than 10 µM with OVCAR-5 ovarian; greater than 10 µM with SF-268 CNS; less than 0.001 µM in the test on SF-295 CNS; less than 0.001 µM with SNB-19 CNS; greater than 10 µM in the test on SNB-75 CNS.

Take `CSc1nc(Cl)c2c(n1)Sc1nc3ccccc3n1N=C2`: the TGI with 786-0 renal is 70.2 µM; with COLO 205 colon, 57.5 µM; in the test with HCC-2998 colon it was 60.9 µM; with HCT-116 colon, greater than 100 µM; in the test with HOP-62 NSCLC it was greater than 100 µM; with HS 578T breast, 62.1 µM. Also, the TGI with HT29 colon is 53.6 µM; with IGROV1 ovarian, 36.7 µM; with KM12 colon it was greater than 100 µM; in the test with MALME-3M melanoma, 68.2 µM; with MDA-N, 59.9 µM; in the test on NCI-H226 lung, greater than 100 µM. Moreover, the TGI with OVCAR-5 ovarian was 97.2 µM; with RXF 393 renal it was 43.4 µM; in the test on SF-268 CNS, greater than 100 µM; in the test on SF-295 CNS, greater than 100 µM; in the test on SNB-19 CNS, greater than 100 µM; with SNB-75 CNS, 71.5 µM.

Take `CCOC(=O)C(C(=O)OCC)C(NC(=O)Nc1cc(C(F)(F)F)ccc1OC)(C(F)(F)F)C(F)(F)F`: the TGI is 55.8 µM with 786-0 renal; 32.3 µM in the test on COLO 205 colon; greater than 100 µM with EKVX NSCLC; 85 µM in the test on HCC-2998 colon; greater than 100 µM in the test on HCT-116 colon; 56.6 µM in the test with HOP-62 NSCLC. In addition, the TGI with HS 578T breast was greater than 100 µM; in the test with HT29 colon, 92.1 µM; in the test on IGROV1 ovarian it was 96.9 µM; in the test with KM12 colon it was 66.1 µM; in the test with MALME-3M melanoma, 51.2 µM; in the test with MDA-N it was greater than 100 µM. The TGI in the test with NCI-H226 lung was 72.4 µM; with OVCAR-5 ovarian, greater than 100 µM; with RXF 393 renal, 62.3 µM; in the test on SF-268 CNS it was greater than 100 µM; in the test on SF-295 CNS, 84.8 µM; in the test with SNB-19 CNS it was greater than 100 µM.

With `O=c1c2cc([N+](=O)[O-])cnc2sn1-c1ccc(Br)cc1`, the TGI is greater than 100 µM in the test with 786-0 renal; greater than 100 µM with COLO 205 colon; greater than 100 µM with EKVX NSCLC; greater than 100 µM in the test with HCC-2998 colon; 59.3 µM in the test on HCT-116 colon; greater than 100 µM in the test with HOP-62 NSCLC. Further, the TGI with HS 578T breast is greater than 100 µM; with HT29 colon, 79.2 µM; in the test on IGROV1 ovarian, greater than 100 µM; in the test with KM12 colon, greater than 100 µM; in the test with MALME-3M melanoma it was 57 µM; in the test with MDA-N, greater than 100 µM. The TGI with NCI-H226 lung is greater than 100 µM; with OVCAR-5 ovarian it was greater than 100 µM; with SF-268 CNS, 75.1 µM; in the test on SF-295 CNS, 47.1 µM; in the test on SNB-19 CNS, greater than 100 µM; with SNB-75 CNS, greater than 100 µM.

Turning to `CCOC(=O)c1c(CN2CCOCC2)n(Cc2ccccc2)c2c1cc(O)c1nc(C)c(C)nc12`, the TGI in the test with 786-0 renal was 68.7 µM; in the test on COLO 205 colon it was greater than 100 µM; in the test with EKVX NSCLC, greater than 100 µM; in the test with HCC-2998 colon, greater than 100 µM; with HCT-116 colon it was greater than 100 µM; in the test with HOP-62 NSCLC, 51.1 µM. The TGI in the test on HS 578T breast, with HT29 colon, in the test on KM12 colon, in the test on MALME-3M melanoma, in the test with MDA-N and with NCI-H226 lung was greater than 100 µM in each case. For the same molecule, the TGI is greater than 100 µM with OVCAR-5 ovarian; 54.4 µM in the test with SF-268 CNS; greater than 100 µM in the test with SF-295 CNS; greater than 100 µM in the test with SNB-19 CNS; 32.7 µM in the test with SNB-75 CNS.
